The test has as its system HIF-2α transcriptional activity. The experiment in a line: Hypoxia-responsive element-driven luciferase (HRE-Luc) assay. It counts as cell-based, human. The conditions noted are these: 786-0 CCRCC cells stably expressing HRE-Luc, 24 hours treatment. The procedure: Screens for inhibitory activity of compounds described herein were performed using 786-0 CCRCC cells that stably express HRE-Luc: 5 copies of the hypoxia-responsive element (HRE) fused to the pGL3 luciferase reporter (Promega Corp, Madison Wis.). 786-0 cells are pVHL deficient and thus constitutively express HIF-2α independently of cellular oxygen tension (Maxwell, Wiesener et al. 1999). Since 786-0 cells lack HIF-1α, HRE-driven luciferase activity is primarily HIF-2α driven, and has been previously validated (Koh, Lemos et al. 2011). Cells were maintained at log phase growth in Dulbecco's […] (DMEM) with 10% FBS in a humidified incubator at 37° C. with 5% CO2. For screening assays, cells were seeded at a density of 4,000 cells in 50 μl of complete media/well in quadruplicate wells/point in a 96-well plate. 24 hours later, 50 μl of a 2× concentration of test compound was added to each well. Compounds were diluted from a 5-10 mM stock in DMSO and final concentrations of DMSO in each well in controls and treated wells were kept constant at ≤0.6% DMSO. After 24 hours' treatment, luciferase activity was measured using the Steady-Glo Luciferase assay system (Promega Corp) according to the manufacturer's protocol. Cell viability was measured in quadruplicate parallel wells using resazurin as recommended by the manufacturer (R&D systems, Minneapolis, Minn.). Data for luciferase and resazurin were normalized to DMSO treated controls (defining 100%) and wells containing assay reagent but no cells (defining 0%), and graphed using the log inhibitor versus normalized response option in Prism7 Graphpad software. Representative data determined using Steady-Glo luciferase and resazurin are shown in FIGS. 1A and 1B respectively, with error bars showing standard error of the mean (SEM).

Bounds are passed on as bounds.

Molecule `Cc1cncc2nc(Nc3nnc(-c4ccc(F)cc4)o3)[nH]c12` [KD006TFA, 5-(4-Fluorophenyl)-N-(7-methyl-1H-imidazo[4,5-c]pyridin-2-yl)-1,3,4-oxadiazol-2-amine] came in with an IC50 (Homo sapiens) of 23.8 µM. Regarding `COc1nccc2[nH]c(Nc3nnc(-c4ccc(C#N)cc4)o3)nc12` [KD031, 4-(5-((4-Methoxy-1H-imidazo[4,5-c]pyridin-2-yl)amino)-1,3,4-oxadiazol-2-yl) benzonitrile], for the setting “Homo sapiens”, the concentration for half-maximal inhibition (IC50) was determined as 3.7 µM.

Turning to `COc1nccc2[nH]c(Nc3nnc(-c4ccc(C(C)(C)C)cc4)o3)nc12` [KD042, 5-(4-(tert-Butyl)phenyl)-N-(4-methoxy-1H-imidazo[4,5-c]pyridin-2-yl)-1,3,4-oxadiazol-2-amine], the IC50 (Homo sapiens) is above 100 µM. In the case of `Fc1ccc(-c2nnc(Nc3nc4cnc(Cl)cc4[nH]3)o2)cc1` [KD004, N-(6-Chloro-1H-imidazo[4,5-c]pyridin-2-yl)-5-(4-fluorophenyl)-1,3,4-oxadiazol-2-amine], inhibition (Homo sapiens) was half-maximal at 40.3 µM (IC50). Molecule `COc1nccc2[nH]c(Nc3nnc(-c4ccc(C)cc4)o3)nc12` [KD028, N-(4-methoxy-1H-imidazo[4,5-c]pyridin-2-yl)-5-(p-tolyl)-1,3,4-oxadiazol-2-amine] showed an IC50 (Homo sapiens) of 9.12 µM. With `COc1nccc2[nH]c(Nc3nnc(-c4ccc5c(c4)OCO5)o3)nc12` [KD026, N-(4-Methoxy-1H-imidazo[4,5-c]pyridin-2-yl)-5-(benzo[d][1,3]dioxol-5-yl)-1,3,4-oxadiazol-2-amine], 2.72 µM corresponded to half-maximal inhibition (Homo sapiens) (IC50). For the setting “Homo sapiens”, `COc1ccc(-c2nnc(Nc3nc4ncccc4o3)o2)cc1` [KD029, N-(5-(4-Methoxyphenyl)-1,3,4-oxadiazol-2-yl)oxazolo[4,5-b]pyridin-2-amine] showed a concentration for half-maximal inhibition (IC50) of 6.1 µM. Consider `CN1CCN(c2cc3[nH]c(Nc4nnc(-c5ccc(F)cc5)o4)nc3cn2)CC1` [KD010, 5-(4-Fluorophenyl)-N-(6-(4-methylpiperazin-1-yl)-1H-imidazo[4,5-c]pyridin-2-yl)-1,3,4-oxadiazol-2-amine], for which, under “Homo sapiens”, the half-inhibitory concentration (IC50) is above 100 µM. For the setting “Homo sapiens”, `COc1ccc2[nH]c(Nc3nnc(-c4ccc(F)cc4)o3)nc2n1` [KD003, 5-(4-Fluorophenyl)-N-(5-methoxy-1H-imidazo[4,5-b]pyridin-2-yl)-1,3,4-oxadiazol-2-amine] registered a half-maximal inhibitory concentration (IC50) of 8.16 µM. On the same count and under the same terms, then `COc1nccc2[nH]c(Nc3nnc(-c4ccc(OC5CC5)cc4)o3)nc12` [KD040, 5-(4-Cyclopropoxyphenyl)-N-(4-methoxy-1H-imidazo[4,5-c]pyridin-2-yl)-1,3,4-oxadiazol-2-amine], with 6.86 µM. Still for that read-out and setting: then `Fc1ccc(-c2nnc(Nc3nc4cnc(C(F)(F)F)cc4[nH]3)o2)cc1` [KD005HCL, 5-(4-Fluorophenyl)-N-(6-(trifluoromethyl)-1H-imidazo[4,5-c]pyridin-2-yl)-1,3,4-oxadiazol-2-amine], with 16.1 µM; and `Fc1ccc(-c2nnc(Nc3nc4cncc(N5CCOCC5)c4[nH]3)o2)cc1` [KD017, 5-(4-Fluorophenyl)-N-(7-morpholino-1H-imidazo[4,5-c]pyridin-2-yl)-1,3,4-oxadiazol-2-amine], with 16.3 µM. Still for that read-out and setting: next, `COc1ccc2nc(Nc3nnc(-c4ccc(F)cc4)o3)sc2n1` [KD008, 5-(4-Fluorophenyl)-N-(5-methoxythiazolo[5,4-b]pyridin-2-yl)-1,3,4-oxadiazol-2-amine]: 52.3 µM; `Fc1ccc(-c2nnc(Nc3nc4cnc(N5CCOCC5)cc4[nH]3)o2)cc1` [KD009, 5-(4-Fluorophenyl)-N-(6-morpholino-1H-imidazo[4,5-c]pyridin-2-yl)-1,3,4-oxadiazol-2-amine]: 15.4 µM.

As for `COc1nccc2[nH]c(Nc3nnc(-c4ccc(OC(F)(F)F)cc4)o3)nc12` [KD020, N-(4-methoxy-1H-imidazo[4,5-c]pyridin-2-yl)-5-(4-(trifluoromethoxy)phenyl)-1,3,4-oxadiazol-2-amine], the midpoint of inhibition (Homo sapiens), the IC50, lay at 16.5 µM. For the molecule `COc1cccc(-c2nccc3nc(Nc4nnc(-c5ccc(F)cc5)o4)[nH]c23)c1` [KD018, 5-(4-Fluorophenyl)-N-(4-(3-methoxyphenyl)-3H-imidazo[4,5-c]pyridin-2-yl)-1,3,4-oxadiazol-2-amine], the IC50 (Homo sapiens) was determined as 72.7 µM. As to `COc1nccc2[nH]c(Nc3nnc(-c4ccc(N(C)C)cc4)o3)nc12` [KD027, N-(4-Methoxy-1H-imidazo[4,5-c]pyridin-2-yl)-5-(4-(dimethylamino)phenyl)-1,3,4-oxadiazol-2-amine], it took 2.83 µM to reach half-maximal inhibition (Homo sapiens) (IC50). Under “Homo sapiens”, `COc1nccc2[nH]c(Nc3nnc(-c4ccc(C(F)(F)F)cc4)o3)nc12` [KD019, N-(4-methoxy-1H-imidazo[4,5-c]pyridin-2-yl)-5-(4-(trifluoromethyl)phenyl)-1,3,4-oxadiazol-2-amine] displayed an IC50 of 32.6 µM.

In turn, `Fc1ccc(-c2nnc(Nc3nc4cnc(Cl)nc4[nH]3)o2)cc1` [KD013, N-(2-Chloro-9H-purin-8-yl)-5-(4-fluorophenyl)-1,3,4-oxadiazol-2-amine] showed an IC50 (Homo sapiens) of 37.6 µM. Still for that read-out and setting: next, `COc1ccc(-c2nnc(Nc3nc4c(OC)nccc4[nH]3)o2)cn1` [KD038, N-(4-Methoxy-1H-imidazo[4,5-c]pyridin-2-yl)-5-(6-methoxypyridin-3-yl)-1,3,4-oxadiazol-2-amine]: 7.6 µM. Where the note is “Homo sapiens”, `Fc1ccc(-c2nnc(Nc3nc4ccnc(N5CCOCC5)c4[nH]3)o2)cc1` [KD016, 5-(4-Fluorophenyl)-N-(4-morpholino-3H-imidazo[4,5-c]pyridin-2-yl)-1,3,4-oxadiazol-2-amine] returned a half-maximal inhibitory concentration (IC50) of 10.2 µM. On the same count and under the same terms, then `COc1ccc(-c2nnc(Nc3nc4c(OC)nccc4[nH]3)o2)cc1F` [KD032, 5-(3-Fluoro-4-methoxyphenyl)-N-(4-methoxy-1H-imidazo[4,5-c]pyridin-2-yl)-1,3,4-oxadiazol-2-amine], with 1.94 µM; and `CS(=O)(=O)C1CCN(c2cc3[nH]c(Nc4nnc(-c5ccc(F)cc5)o4)nc3cn2)CC1` [KD015, 5-(4-Fluorophenyl)-N-(6-(4-(methylsulfonyl)piperidin-1-yl)-1H-imidazo[4,5-c]pyridin-2-yl)-1,3,4-oxadiazol-2-amine], with above 100 µM. Molecule `Fc1ccc(-c2nnc(Nc3nc4ccnc(-c5ccc6c(c5)OCO6)c4[nH]3)o2)cc1` [KD030, N-(4-(Benzo[d][1,3]dioxol-5-yl)-3H-imidazo[4,5-c]pyridin-2-yl)-5-(4-fluorophenyl)-1,3,4-oxadiazol-2-amine] returned a half-inhibitory concentration (IC50) (Homo sapiens) of 19.9 µM. Regarding `COc1ccc(-c2nnc(Nc3nc4c(Cl)nccc4[nH]3)o2)cc1` [KD022, N-(4-chloro-1H-imidazo[4,5-c]75yridine-2-yl)-5-(4-methoxyphenyl)-1,3,4-oxadiazol-2-amine], the 50% inhibitory concentration (IC50) is 28.3 µM. Regarding `COc1nccc2[nH]c(Nc3nnc(-c4ccc(OC(C)C)cc4)o3)nc12` [KD041, 5-(4-Isopropoxyphenyl)-N-(4-methoxy-1H-imidazo[4,5-c]pyridin-2-yl)-1,3,4-oxadiazol-2-amine], half-maximal inhibition (Homo sapiens) (IC50) was put at 22.6 µM.

Broadly, the IC50 is the concentration at which inhibition is half-maximal. Read a high IC50 as lower potency.

For the origin of these results see patent publication US11447482B1, “Imidazopyridine and oxazolopyridine derivatives and analogs thereof, methods of preparation thereof, methods of HIF-2A pathway inhibition, and induction of ferroptosis” (KUDA Therapeutics, Inc., priority 2019, dated 2022).
